target: T1, TLR9 (Homo sapiens, UniProt Q9NR96); assay: huPBMC TLR9 Antagonist IFNα Assay; assay type: cell-based; conditions: human PBMCs stimulated with ODN2216 0.3 μM, 14-16 hrs; IFNα2b AlphaLISA read-out
T1 construct: Fresh blood was collected from normal human donors; endogenous in cells; host or cells: human PBMCs from fresh donor blood
T1 sequence (Q9NR96 26-1032): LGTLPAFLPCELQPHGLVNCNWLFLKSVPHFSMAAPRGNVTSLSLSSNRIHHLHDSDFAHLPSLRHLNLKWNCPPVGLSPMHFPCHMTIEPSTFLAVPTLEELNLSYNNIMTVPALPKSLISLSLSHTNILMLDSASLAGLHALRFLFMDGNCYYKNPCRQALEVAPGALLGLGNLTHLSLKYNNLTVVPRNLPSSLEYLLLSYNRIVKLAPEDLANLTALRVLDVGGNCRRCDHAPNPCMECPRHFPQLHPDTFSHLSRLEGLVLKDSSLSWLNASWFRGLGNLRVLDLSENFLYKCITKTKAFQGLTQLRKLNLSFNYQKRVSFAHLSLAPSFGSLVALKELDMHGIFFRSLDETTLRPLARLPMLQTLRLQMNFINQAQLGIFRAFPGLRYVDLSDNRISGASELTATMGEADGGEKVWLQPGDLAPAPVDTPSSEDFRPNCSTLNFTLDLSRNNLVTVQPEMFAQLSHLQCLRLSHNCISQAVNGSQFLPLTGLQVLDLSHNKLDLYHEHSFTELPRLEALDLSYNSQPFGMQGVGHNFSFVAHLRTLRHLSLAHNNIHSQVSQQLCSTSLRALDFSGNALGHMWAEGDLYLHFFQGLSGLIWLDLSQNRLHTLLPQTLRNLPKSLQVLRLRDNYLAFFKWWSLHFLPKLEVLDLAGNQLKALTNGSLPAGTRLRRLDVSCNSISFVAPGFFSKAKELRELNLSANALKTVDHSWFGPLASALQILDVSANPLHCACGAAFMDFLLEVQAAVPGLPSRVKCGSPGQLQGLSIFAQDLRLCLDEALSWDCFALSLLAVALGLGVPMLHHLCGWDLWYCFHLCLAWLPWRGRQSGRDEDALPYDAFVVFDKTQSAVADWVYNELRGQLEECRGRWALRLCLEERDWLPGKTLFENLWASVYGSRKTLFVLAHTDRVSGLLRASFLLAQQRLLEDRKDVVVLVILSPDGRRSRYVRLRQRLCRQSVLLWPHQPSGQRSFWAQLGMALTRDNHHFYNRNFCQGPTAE
Experimental: Compounds were generally serially diluted (1/3) in DMSO and plated on sterile 384 well tissue culture plates and stored until ready for use. Each ten-point dilution was typically plated in triplicate in parallel rows.
Fresh blood was collected from normal human donors underwritten informed consent in heparinized syringes on the morning of the assay. The blood was diluted in RPMI-1640 medium and the white blood cells were separated from red blood cells by centrifugation (800 g 15′ 0 acceleration, 0 brake) on a Ficoll cushion. Peripheral blood mononuclear cells (PBMCs) were separated from platelets by a series of low-speed centrifugations (1000RPM 10′) in PBS+5% HI—FBS and 1 mM EDTA. Purified PBMCs were re-suspended in assay medium (RPMI-1640 w Glutamax (Invitrogen) supplemented with 5% HI—FBS, 10 mM HEPES, 50 uM β-mercaptoethanol, and 100 mG/L penicillin/streptomycin cocktail). Viable PBMCs were counted on a hemacytometer and kept on ice until ready for plating.
A 4× concentration (4 ug/ml or 40 ug/ml for TLR8 or TLR7 assays, respectively) of the TLR7/8 agonist ssRNA40 (IDT) was complexed with 10% DOTAP (Roche) in assay medium for 30 min prior to addition to the PBMC suspension (5 million cells/ml). After addition, the final concentration of ssRNA40 in the TLR7/8 stimulated PBMC suspension was 1 μg/ml for TLR8 assay, and 10 μg/mL for the TLR7 assay. The final DOTAP concentration was 2.5%. Diluted PBMCs (5 million cells/ml) were treated with 4×TLR9 agonist ODN2216 (Invivogen). Final concentration of ODN2216 in TLR9 stimulated PBMC suspension was 0.3 μM.
Agonist stimulated PBMCs were plated on the compound treated 384 well plates at 150,000 cells/well. Un-stimulated PBMCs were plated as controls on each plate. Plating volume was 40 μL per well. DMSO concentration in each well was 0.25%.
A separate plate, without compounds, with titrations of ssRNA40 and ODN2216 was included in every assay to measure agonist response of each donor's PBMC prep. Assay plates were placed in a tissue culture incubator (37° C., 5% CO2) for 14-16 hrs. After this incubation, the plates were centrifuged and stored at −20° C. until they were assayed.
IL-6 TR-FRET Assay for TLR8 activity: • 1) Cisbio Human IL-6 kit, 20,000 tests (62TNFPEC), and GNF High-Base TC 384 well plates (cat #789163G) were used; • 2) the Anti-TIL-6 Cryptate conjugate and the Anti-IL-6 XL665 conjugate were diluted 1:20 in Reconstitution Buffer; • 3) a 1:1 mixture of 3 μl/well Anti-IL-6 Cryptate conjugate and 3 μl/well Anti-IL-6 XL665 conjugate was prepared; • 4) 6 μl/well HTRF dilution mastermix was added to 6 μl of transferred supernatant samples in proxiplates; • 5) The plates were incubated for 3 hrs at rt in the dark; and • 6) the levels of IL-6 production was measured using an Envision plate reader (665 nm (emmission)/590 nm (excitation)) with HTRF settings and ratiometric read-out: (XL665 emission/Eu Cryptate emission)×10,000. IFNα2b AlphaLISA Assay for TLR7 or TLR9 activity After thawing the assay plates, 6 μL of supernatant samples were transferred to a low-volume AlphaPlate 384SW (Perkin-Elmer). The concentration of IFNα in supernatants was measured using the IFNα2b AlphaLISA Assay (Perkin-Elmer: AL297F). 3 μL of IFNα acceptor beads/biotinylated antibody solution was added first, using laboratory automation. After an hour incubation, […] of streptavidin […] bead solution was added. The plates containing this mixture were incubated in the dark for an hour and read on an appropriate plate reader at reading parameters set by the manufacturer. (Envision, EnSpire: Perkin-Elmer).

IC50 [nM] | Compound
1390 | Cc1cc(N2CCc3c(c(C)nn3CC34CCC(NC5COC5)(CC3)CC4)C2)c2cnn(C)c2n1 [Compound No. 6, N-(4-((5-(1,6-dimethyl-1H-pyrazolo[3,4-b]pyridin-4-yl)-3-methyl-4,5,6,7-tetrahydro-1H-pyrazolo[4,3-c]pyridin-1-yl)methyl)bicyclo[2.2.2]octan-1-yl)oxetan-3-amine]
5100 | Cc1cc(N2CCc3c(c(C)nn3CC34CCC(NC(=O)[C@H]5COCCN5)(CC3)CC4)C2)c2cnn(C)c2n1 [Compound No. 9, (R)—N-(4-((5-(1,6-dimethyl-1H-pyrazolo[3,4-b]pyridin-4-yl)-3-methyl-4,5,6,7-tetrahydro-1H-pyrazolo[4,3-c]pyridin-1-yl)methyl)bicyclo[2.2.2]octan-1-yl)morpholine-3-carboxamide]
511 | Cc1cc(N2CCc3c(c(C)nn3CC34CCC(N(C)C)(CC3)CC4)C2)c2cnn(C)c2n1 [Compound No. 43, 4-((5-(1,6-dimethyl-1H-pyrazolo[3,4-b]pyridin-4-yl)-3-methyl-4,5,6,7-tetrahydro-1H-pyrazolo[4,3-c]pyridin-1-yl)methyl)-N,N-dimethylbicyclo[2.2.2]octan-1-amine]
1140 | Cc1cc(N2CCc3c(c(C)nn3CC34CCC(NC(=O)CN5CC(F)C5)(CC3)CC4)C2)c2cnn(C)c2n1 [Compound No. 133, N-(4-((5-(1,6-dimethyl-1H-pyrazolo[3,4-b]pyridin-4-yl)-3-methyl-4,5,6,7-tetrahydro-1H-pyrazolo[4,3-c]pyridin-1-yl)methyl)bicyclo[2.2.2]octan-1-yl)-2-(3-fluoroazetidin-1-yl)acetamide]
> 10000 | Cc1cc(N2CCc3c(c(C)nn3CC34CCC(NC(=O)CO)(CC3)CC4)C2)c2cnn(C)c2n1 [Compound No. 135, N-(4-((5-(1,6-dimethyl-1H-pyrazolo[3,4-b]pyridin-4-yl)-3-methyl-4,5,6,7-tetrahydro-1H-pyrazolo[4,3-c]pyridin-1-yl)methyl)bicyclo[2.2.2]octan-1-yl)-2-hydroxyacetamide]
1170 | Cc1cc(N2CCc3c(c(C)nn3CC34CCC(NC(=O)CN5CC(O)C5)(CC3)CC4)C2)c2cnn(C)c2n1 [Compound No. 136, N-(4-((5-(1,6-dimethyl-1H-pyrazolo[3,4-b]pyridin-4-yl)-3-methyl-4,5,6,7-tetrahydro-1H-pyrazolo[4,3-c]pyridin-1-yl)methyl)bicyclo[2.2.2]octan-1-yl)-2-(3-hydroxyazetidin-1-yl)acetamide]

Continued, compound first:

Compound | IC50 [nM]
Cc1cc(N2CCc3c(c(C)nn3CC34CCC(N)(CC3)CC4)C2)c2ccncc2n1 [Compound No. 3, 4-((3-methyl-5-(2-methyl-1,7-naphthyridin-4-yl)-4,5,6,7-tetrahydro-1H-pyrazolo[4,3-c]pyridin-1-yl)methyl)bicyclo[2.2.2]octan-1-amine] | 1930
Cc1cc(N2CCc3c(c(C)nn3CC34CCC(NC(=O)[C@@H]5COCCN5)(CC3)CC4)C2)c2cnn(C)c2n1 [Compound No. 8, (S)—N-(4-((5-(1,6-dimethyl-1H-pyrazolo[3,4-b]pyridin-4-yl)-3-methyl-4,5,6,7-tetrahydro-1H-pyrazolo[4,3-c]pyridin-1-yl)methyl)bicyclo[2.2.2]octan-1-yl)morpholine-3-carboxamide] | 4280
Cc1nc(N2CCc3c(c(C)nn3CC34CCC(N5CC6(COC6)C5)(CC3)CC4)C2)c2c(n1)c(C)nn2C [Compound No. 10, 6-(4-((3-methyl-5-(1,3,5-trimethyl-1H-pyrazolo[4,3-d]pyrimidin-7-yl)-4,5,6,7-tetrahydro-1H-pyrazolo[4,3-c]pyridin-1-yl)methyl)bicyclo[2.2.2]octan-1-yl)-2-oxa-6-azaspiro[3.3]heptane] | > 10000
Cc1nc(N2CCc3c(c(C)nn3CC34CCC(N)(CC3)CC4)C2)c2c(n1)c(C)nn2C [Compound No. 26, 4-((3-methyl-5-(1,3,5-trimethyl-1H-pyrazolo[4,3-d]pyrimidin-7-yl)-4,5,6,7-tetrahydro-1H-pyrazolo[4,3-c]pyridin-1-yl)methyl)bicyclo[2.2.2]octan-1-amine] | > 1000
Cc1cc(N2CCc3c(c(C)nn3CC34CCC(N5CCN(C)C(=O)C5)(CC3)CC4)C2)c2cnn(C)c2n1 [Compound No. 104, 4-(4-((5-(1,6-dimethyl-1H-pyrazolo[3,4-b]pyridin-4-yl)-3-methyl-4,5,6,7-tetrahydro-1H-pyrazolo[4,3-c]pyridin-1-yl)methyl)bicyclo[2.2.2]octan-1-yl)-1-methylpiperazin-2-one] | > 10000
Cc1cc(N2CCc3c(c(C)nn3CC34CCC(N5CCN(C)CC5=O)(CC3)CC4)C2)c2cnn(C)c2n1 [Compound No. 108, 1-(4-((5-(1,6-dimethyl-1H-pyrazolo[3,4-b]pyridin-4-yl)-3-methyl-4,5,6,7-tetrahydro-1H-pyrazolo[4,3-c]pyridin-1-yl)methyl)bicyclo[2.2.2]octan-1-yl)-4-methylpiperazin-2-one] | 8640
Cc1cc(N2CCc3c(c(C)nn3CC34CCC(n5ccnc5)(CC3)CC4)C2)c2cnn(C)c2n1 [Compound No. 119, 1-((4-(1H-imidazol-1-yl)bicyclo[2.2.2]octan-1-yl)methyl)-5-(1,6-dimethyl-1H-pyrazolo[3,4-b]pyridin-4-yl)-3-methyl-4,5,6,7-tetrahydro-1H-pyrazolo[4,3-c]pyridine] | 608
[2H]C([2H])([2H])n1ncc2c(N3CCc4c(c(C)nn4CC45CCC(N)(CC4)CC5)C3)cc(C)nc21 [Compound No. 140, 4-((3-methyl-5-(6-methyl-1-(methyl-d3)-1H-pyrazolo[3,4-b]pyridin-4-yl)-4,5,6,7-tetrahydro-1H-pyrazolo[4,3-c]pyridin-1-yl)methyl)bicyclo[2.2.2]octan-1-amine] | 1800
Cc1cc(N2CCc3c(c(C)nn3CC34CCC(NC(=O)OC(C)(C)C)(CC3)CC4)C2)c2ccncc2n1 [Compound No. 147, tert-butyl (4-((3-methyl-5-(2-methyl-1,7-naphthyridin-4-yl)-4,5,6,7-tetrahydro-1H-pyrazolo[4,3-c]pyridin-1-yl)methyl)bicyclo[2.2.2]octan-1-yl)carbamate] | 6240

Source: US20240376099A1, “COMPOUNDS AND COMPOSITIONS AS INHIBITORS OF ENDOSOMAL TOLL-LIKE RECEPTORS” (Novartis AG, priority 2016, published 2024)
